In ChEMBL document CHEMBL1201862, “PubChem BioAssay data set” (2004):
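Each compound was tested at five concentrations against cells in 96-well plates for 48 hours. GI50: concentration for 50% inhibition of growth.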 Active and inactive are the calls of the source. Rule as the data show it: active = GI50 up to about 1.1 µM and inactive = higher.

What was measured:
Assay in all cases: NCI anticancer screen, dose series, 48 h
HOP-18 = system: HOP-18
XF498 = system: XF498
DLD-1 = system: DLD-1
Hs-578T = system: Hs-578T
SNB-78 = system: SNB-78
DMS-114 = system: DMS-114
T47D = system: T47D
RXF 631 = system: RXF 631

Row | Structure (SMILES) | GI50 (HOP-18) | GI50 (XF498) | GI50 (DLD-1) | GI50 (Hs-578T) | GI50 (SNB-78) | GI50 (DMS-114) | GI50 (T47D) | GI50 (RXF 631)
1 | NCc1ccc(O)c(O)c1O | > 56.8 µM (inactive) | 26.9 µM (inactive) | 20.3 µM (inactive) | 10.7 µM (inactive) | > 65.9 µM (inactive) | 18.8 µM (inactive) | 26.2 µM (inactive) | 
2 | CCc1cccc(C(C)CC)c1NC(=O)CC1C(=O)Nc2ccccc2[S+]1[O-] (stereo not drawn) |  |  | 32.8 µM (inactive) |  | 28.8 µM (inactive) | 28.2 µM (inactive) |  | 36.1 µM (inactive)
3 | Nc1ccccc1S(=O)(=O)N(CC(=O)O)c1ccccc1 | > 100 µM (inactive) | > 100 µM (inactive) | > 100 µM (inactive) |  |  |  |  | > 100 µM (inactive)
4 | CC(=O)OC1(C#N)CC2OC1C1NC21 (stereo not drawn) |  | > 100 µM (inactive) | > 100 µM (inactive) |  | > 100 µM (inactive) | > 100 µM (inactive) |  | > 100 µM (inactive)
5 | Nc1c(Cl)ncnc1NCCCCCCCCCCCCNc1ncnc(Cl)c1N | 5.48 µM (inactive) | 0.593 µM (active) | 2.73 µM (inactive) |  | 0.137 µM (active) | < 0.01 µM (active) |  | 1.94 µM (inactive)
6 | COC[C@@H](/N=C/N1CCc2cc(OC)c(OC)cc2[C@@H]1C)C(C)(C)C | > 100 µM (inactive) | > 100 µM (inactive) | > 100 µM (inactive) |  |  | > 100 µM (inactive) |  | > 100 µM (inactive)
7 | O=C1NC(=O)C2C1N(Cc1ccccc1)C(=O)N2Cc1ccccc1 (stereo not drawn) |  | > 100 µM (inactive) | > 100 µM (inactive) |  | > 100 µM (inactive) | > 100 µM (inactive) |  | > 100 µM (inactive)
8 | Cn1cnc([N+](=O)[O-])c1Sc1nc2cccnc2s1 |  | 21 µM (inactive) | 12.8 µM (inactive) |  | 46.9 µM (inactive) | 14.7 µM (inactive) |  | 14.6 µM (inactive)
9 | O=C(NC1CCC[C@H]1OC(=O)c1ccccc1)c1ccccc1 (stereo partly drawn) |  | 35.3 µM (inactive) | 24.4 µM (inactive) |  | > 100 µM (inactive) | > 10 µM (inactive) |  | 66.8 µM (inactive)
10 | CC1C(=O)CCC1C(Sc1ccccc1)(Sc1ccccc1)Sc1ccccc1 (stereo not drawn) |  | 24.7 µM (inactive) | 28.8 µM (inactive) |  | 37.8 µM (inactive) | 13.8 µM (inactive) |  | 25.9 µM (inactive)
11 | CCC1(CN(C)C)CC/C(=C\c2ccc(OC)c(OC)c2)C1=O (stereo not drawn) | > 100 µM (inactive) | > 100 µM (inactive) | > 80.7 µM (inactive) |  | > 100 µM (inactive) | 99.8 µM (inactive) |  | > 100 µM (inactive)
12 | COc1cc2c(c(OC)c1OC)-c1ccc(SC)c(=O)cc1[C@@H](NC(=O)c1ccc([N+](=O)[O-])cc1)CC2 |  | 0.00746 µM (active) | < 0.0025 µM (active) |  | < 0.0025 µM (active) | < 0.0025 µM (active) |  | < 0.01 µM (active)
13 | C=Cc1cncc(C#N)c1CCc1c(C#N)cncc1C=C | > 10 µM (inactive) | > 10 µM (inactive) | > 10 µM (inactive) |  | > 10 µM (inactive) | > 10 µM (inactive) |  | 
14 | CC(C)NC(=O)O/N=C1\CCC2[C@@H]3CC=C4C[C@@H](OC(=O)NC(C)C)CC[C@]4(C)C3CC[C@]12C (stereo partly drawn) | 1.84 µM (inactive) |  | 2.53 µM (inactive) |  | 2.29 µM (inactive) | 0.664 µM (active) |  | 1.32 µM (inactive)
15 | N#CC(C(=N/O)/C(=N/O)C(C#N)c1ccc(Cl)cc1)c1ccc(Cl)cc1 (stereo not drawn) | 43.6 µM (inactive) | > 100 µM (inactive) | > 100 µM (inactive) |  | 23.4 µM (inactive) | > 100 µM (inactive) |  | 
16 | Cc1c(C(=O)Nc2ccc(Cl)cc2)nc(N)nc1-c1cccc(Cl)c1 | > 100 µM (inactive) |  | > 100 µM (inactive) |  | > 100 µM (inactive) | 94.4 µM (inactive) |  | 52.1 µM (inactive)
17 | O=C1NC2(CCCCC2)C2=C1CCCCC2 | > 100 µM (inactive) | > 100 µM (inactive) | > 100 µM (inactive) |  | > 100 µM (inactive) | > 100 µM (inactive) |  | 
18 | O=C(CCc1nnc2s/c(=C\c3ccccc3[N+](=O)[O-])c(=O)n12)Nc1cc(Cl)c(Cl)cc1Cl | 18.3 µM (inactive) | 22.6 µM (inactive) | 25.2 µM (inactive) |  | 35.2 µM (inactive) | 49.3 µM (inactive) |  | 47.1 µM (inactive)
19 | O=c1cccccc1NCCCCNc1cccccc1=O | > 100 µM (inactive) |  | 57.3 µM (inactive) |  | > 100 µM (inactive) | 31.3 µM (inactive) |  | > 100 µM (inactive)
